Data published in patent US11072616B2, “Cyclic peptides targeting alpha-4-beta-7 integrin” (Zealand Pharma A/S, priority 2015, dated 2021).

Legend:
Aqueous solubility assay = type: physicochemical; details: PBS pH 7.4, 4 h, room temperature; for Determined concentration Mean: mean of 3, maximal concentration evaluated 200, 500 or 1000 μM; for Determined concentration Rep 1: replicate 1; for Determined concentration Rep 2: replicate 2; for Determined concentration Rep 3: replicate 3
Description: Solutions were incubated for four hours at room temperature and stirred at 600 rpm and run in triplicate. Centrifugation was performed for 15 minutes at 6000 rpm and solution concentration was determined using HPLC-UV (photodiode array detector acquiring between 220 nm, and 300 nm wavelengths).

integrin α4β7 = biological target: T1, integrin α4β7 (Homo sapiens, UniProt P13612+P26010); assay: Integrin α4β7—MAdCAM-1 competition assay (ELISA); type: binding; details: ratio a4b1 ELISA IC50 / a4b7 ELISA IC50
T1 sequence (P13612 34-977 limits assumed): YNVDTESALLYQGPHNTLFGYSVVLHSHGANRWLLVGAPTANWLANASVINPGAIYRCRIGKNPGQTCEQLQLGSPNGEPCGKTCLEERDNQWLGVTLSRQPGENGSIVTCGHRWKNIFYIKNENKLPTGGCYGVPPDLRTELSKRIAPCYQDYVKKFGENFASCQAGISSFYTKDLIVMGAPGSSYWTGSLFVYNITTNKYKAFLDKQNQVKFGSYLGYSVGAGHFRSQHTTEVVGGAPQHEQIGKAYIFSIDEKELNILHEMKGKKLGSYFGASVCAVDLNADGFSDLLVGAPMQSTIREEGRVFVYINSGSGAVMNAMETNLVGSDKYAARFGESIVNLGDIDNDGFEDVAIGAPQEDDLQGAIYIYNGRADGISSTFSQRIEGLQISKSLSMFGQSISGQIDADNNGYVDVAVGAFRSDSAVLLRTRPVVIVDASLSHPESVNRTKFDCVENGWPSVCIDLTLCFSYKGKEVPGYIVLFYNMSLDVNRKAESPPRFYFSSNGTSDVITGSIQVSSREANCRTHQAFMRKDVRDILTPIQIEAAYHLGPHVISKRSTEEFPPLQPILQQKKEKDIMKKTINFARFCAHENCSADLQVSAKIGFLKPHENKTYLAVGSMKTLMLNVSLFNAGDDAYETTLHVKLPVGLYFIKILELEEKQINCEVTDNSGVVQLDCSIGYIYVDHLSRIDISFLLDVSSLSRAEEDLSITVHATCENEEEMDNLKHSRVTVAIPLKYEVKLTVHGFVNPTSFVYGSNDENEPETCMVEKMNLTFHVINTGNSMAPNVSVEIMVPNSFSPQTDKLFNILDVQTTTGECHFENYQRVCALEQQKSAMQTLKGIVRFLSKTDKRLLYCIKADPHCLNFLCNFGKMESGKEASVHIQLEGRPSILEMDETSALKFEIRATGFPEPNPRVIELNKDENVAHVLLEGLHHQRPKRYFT
T1 sequence (P26010 20-723 limits assumed): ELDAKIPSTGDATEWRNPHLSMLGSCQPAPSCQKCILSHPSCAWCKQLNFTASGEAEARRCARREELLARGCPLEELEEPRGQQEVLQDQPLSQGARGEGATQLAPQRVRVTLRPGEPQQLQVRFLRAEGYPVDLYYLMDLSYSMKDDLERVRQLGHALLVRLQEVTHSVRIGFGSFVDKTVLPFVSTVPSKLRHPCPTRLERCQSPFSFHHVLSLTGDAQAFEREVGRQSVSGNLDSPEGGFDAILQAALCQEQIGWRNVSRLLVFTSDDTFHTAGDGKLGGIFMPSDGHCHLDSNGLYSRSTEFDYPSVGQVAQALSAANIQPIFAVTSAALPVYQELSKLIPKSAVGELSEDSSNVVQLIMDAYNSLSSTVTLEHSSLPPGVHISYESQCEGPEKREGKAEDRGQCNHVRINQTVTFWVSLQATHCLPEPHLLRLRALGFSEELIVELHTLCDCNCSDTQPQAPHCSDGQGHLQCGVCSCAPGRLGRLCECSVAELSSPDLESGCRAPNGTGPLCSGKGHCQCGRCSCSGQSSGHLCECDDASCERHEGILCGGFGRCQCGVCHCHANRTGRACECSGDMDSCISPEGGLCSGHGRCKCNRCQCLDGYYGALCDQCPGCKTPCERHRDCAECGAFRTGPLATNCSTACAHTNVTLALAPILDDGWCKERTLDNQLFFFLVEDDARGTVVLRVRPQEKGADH
Method in brief: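 Competitive ELISA in which serially diluted compound was incubated with the receptor system for 2 h at room temperature to equilibrium. Wash buffer contained 1 mM MnCl2. Bound Fc-tagged partner was detected with anti-human IgG Fc-HRP and TMB.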

SMILES	Determined concentration Mean (Aqueous solubility assay)	Determined concentration Rep 1 (Aqueous solubility assay)	Determined concentration Rep 2 (Aqueous solubility assay)	Determined concentration Rep 3 (Aqueous solubility assay)	Selectivity ELISA (integrin α4β7)
CC(C)C[C@@H]1NC(=O)[C@H](CCCCN)NC(=O)[C@@H]2CCCN2[C@H](C(=O)NC(C)(C)C)[C@H](C)NC(=O)[C@H]([C@@H](C)O)NC(=O)[C@H](CC(=O)O)NC1=O [UM0132376-01]	962.9 µM	990.7 µM	958.6 µM	939.5 µM	
CC(C)C[C@@H]1NC(=O)[C@H](Cc2ccc(O)cc2)NC(=O)[C@@H]2CCCN2[C@H](C(=O)NC(C)(C)C)[C@H](C)NC(=O)[C@H]([C@@H](C)O)NC(=O)[C@H](CC(=O)O)NC1=O [UM0131995-05]	898.5 µM	883.9 µM	897.3 µM	914.7 µM	
CC(C)C[C@@H]1NC(=O)[C@H](CCCN)NC(=O)[C@@H]2CCCN2[C@H](C(=O)NC(C)(C)C)[C@H](C)NC(=O)[C@H]([C@@H](C)O)NC(=O)[C@H](CC(=O)O)NC1=O [UM0132377-01]	218.6 µM	225.7 µM	218.9 µM	211.2 µM	
CC(C)C[C@@H]1NC(=O)C2(Cc3ccccc3C2)NC(=O)[C@@H]2CCCN2[C@H](C(=O)NC(C)(C)C)[C@H](C)NC(=O)[C@H]([C@@H](C)O)NC(=O)[C@H](CC(=O)O)NC1=O [UM0132369-01]	882.5 µM	874.4 µM	885.9 µM	887.3 µM	14.4
CSCC[C@@H]1NC(=O)[C@@H]2CCCN2[C@H](C(=O)NC(C)(C)C)[C@H](C)NC(=O)[C@H]([C@@H](C)O)NC(=O)[C@H](CC(=O)O)NC(=O)[C@H](CC(C)C)NC1=O [UM0132374-01]	183.1 µM	179.4 µM	184.0 µM	185.9 µM	
CC(C)C[C@@H]1NC(=O)[C@@H](Cc2ccc(O)cc2)NC(=O)[C@@H]2CCCN2[C@H](C(=O)NC(C)(C)C)[C@H](C)NC(=O)[C@H]([C@@H](C)O)NC(=O)[C@H](CC(=O)O)NC1=O [UM0132375-02]	954.5 µM	966.6 µM	960.0 µM	936.8 µM	
CC(C)C[C@@H]1NC(=O)C2(CCCC2)NC(=O)[C@@H]2CCCN2[C@H](C(=O)NC(C)(C)C)[C@H](C)NC(=O)[C@H]([C@@H](C)O)NC(=O)[C@H](CC(=O)O)NC1=O [UM0132368-01]	926.3 µM	926.3 µM	917.9 µM	934.3 µM	14.9
CC(C)C[C@@H]1NC(=O)c2cccc(c2)CNC(=O)[C@@H]2CCCN2[C@H](C(=O)NC(C)(C)C)[C@H](C)NC(=O)[C@H]([C@@H](C)O)NC(=O)[C@H](CC(=O)O)NC1=O [UM0134690-01]	942.9 µM	957.3 µM	950.5 µM	920.8 µM	8.7
CC(C)C[C@@H]1NC(=O)[C@@H]2CCCN2C(=O)[C@@H]2CCCN2[C@H](C(=O)NC(C)(C)C)[C@H](C)NC(=O)[C@H]([C@@H](C)O)NC(=O)[C@H](CC(=O)O)NC1=O [UM0132366-01]	467.8 µM	474.2 µM	477.4 µM	451.9 µM	
CC(C)C[C@@H]1NC(=O)CNC(=O)[C@H](Cc2ccc(O)cc2)NC(=O)[C@@H]2CCCN2[C@H](C(=O)NC(C)(C)C)[C@H](C)NC(=O)[C@H]([C@@H](C)O)NC(=O)[C@H](CC(=O)O)NC1=O [UM0134677-01]	224.6 µM	225.4 µM	230.6 µM	217.8 µM	
CC(C)C[C@@H]1NC(=O)[C@H](Cc2cscn2)NC(=O)[C@@H]2CCCN2[C@H](C(=O)NC(C)(C)C)[C@H](C)NC(=O)[C@H]([C@@H](C)O)NC(=O)[C@H](CC(=O)O)NC1=O [UM0132370-01]	183.2 µM	187.0 µM	182.4 µM	180.2 µM	
C=CCOc1ccc(C[C@@H]2NC(=O)[C@@H]3CCCN3[C@H](C(=O)NC(C)(C)C)[C@H](C)NC(=O)[C@H]([C@@H](C)O)NC(=O)[C@H](CC(=O)O)NC(=O)[C@H](CC(C)C)NC2=O)cc1 [UM0132371-01]	834.5 µM	786.7 µM	837.3 µM	879.6 µM	
CC(C)C[C@@H]1NC(=O)[C@@H](Cc2ccncc2)NC(=O)[C@@H]2CCCN2[C@H](C(=O)NC(C)(C)C)[C@H](C)NC(=O)[C@H]([C@@H](C)O)NC(=O)[C@H](CC(=O)O)NC1=O [UM0134700-01]	994.5 µM	1044.8 µM	933.2 µM	950.6 µM	
CC(C)C[C@@H]1NC(=O)[C@H](Cc2ccc(O)cc2)NC(=O)[C@H](C)NC(=O)[C@@H]2CCCN2[C@H](C(=O)NC(C)(C)C)[C@H](C)NC(=O)[C@H]([C@@H](C)O)NC(=O)[C@H](CC(=O)O)NC1=O [UM0134830-01]	1000.0 µM	1012.0 µM	1016.4 µM	971.7 µM	
CC(C)C[C@@H]1NC(=O)[C@H]2CCCCN2C(=O)[C@H](Cc2cscn2)NC(=O)[C@@H]2CCCN2[C@H](C(=O)NC(C)(C)C)[C@H](C)NC(=O)[C@H]([C@@H](C)O)NC(=O)[C@H](CC(=O)O)NC1=O [Compound 131]					3.1
CC(C)C[C@@H]1NC(=O)[C@H](Cc2csc(-c3ccncc3)n2)NC(=O)[C@@H]2CCCN2[C@H](C(=O)NC(C)(C)C)[C@H](C)NC(=O)[C@H]([C@@H](C)O)NC(=O)[C@H](CC(=O)O)NC1=O [Compound 97]					2.5
Cc1cccc(C)c1-c1ccccc1C[C@@H]1NC(=O)[C@@H]2CCCN2[C@H](C(=O)NC(C)(C)C)[C@H](C)NC(=O)[C@H]([C@@H](C)O)NC(=O)[C@H](CC(=O)O)NC(=O)[C@H](CC(C)C)NC(=O)C[C@H](CCCCN)NC1=O [Compound 272]					58.1
CC(C)C[C@@H]1NC(=O)c2ccc(Br)c(c2)CNC(=O)[C@H](Cc2ccc(O)cc2)NC(=O)[C@@H]2CCCN2[C@H](C(=O)NC(C)(C)C)[C@H](C)NC(=O)[C@H]([C@@H](C)O)NC(=O)[C@H](CC(=O)O)NC1=O [Compound 336]					5.6
